Data from patent publication US7906334B2, “Method for reproducing conifers by somatic embryogenesis using lactose as a carbon source” (Cellfor Inc., priority 2003, dated 2011).

Legend:
[1] = test system: Douglas fir embryogenic tissue, cell line DF-2; test: Effects of carbohydrates on liquid maintenance of Douglas fir embryogenic tissue; format: cell-based, Pseudotsuga menziesii (Douglas fir); conditions: 3 weeks suspension maintenance/bulking-up, 0.5% galactose, 1% lactose, 0.5% mannitol
Protocol: The culture medium for Douglas fir was TX medium (see Table A) with the following additives: glutamine 100 mg., Casein hydrolysate 100 mg., and pH 5.8. The following compounds were added into the basal medium for Douglas fir somatic embryo development at different stages: • 1) Induction medium: 18 μM 2,4-D and 9 μM BA, phytagel 0.28%, sucrose 1% • 2) Solid maintenance medium: 9 μM 2,4-D and 4.5 μM BA, phytagel 0.28%, sucrose 1%. • 3) Liquid maintenance and bulking-up medium: 9 μM 2,4-D and 4.5 μM BA, different carbon sources for experiments. • 4) Liquid pre-treatment medium: 20 (first week) or 30 μM ABA (second week), 10% PEG4000 (first week) or PEG1500 (second week), different carbon sources as described in examples below. • 5) Solid maturation media: TX (Table A) plus 0.02% NH4NO3 • Medium I. 40 μM ABA, 10% PEG 1500, maltose 2.5%, phytagel 0.6% • Medium II. 60 μM ABA, 10% PEG1500, maltose 2.5% and sucrose 1%, phytagel 0.8% • Medium III. 70 μM ABA, 6% PEG1500, sucrose 6%, phytagel 1%.
Embryogenic tissue was induced from immature zygotic embryos. The cones and seeds were surface-sterilised as described for pines, and embryos were dissected out from megagametophytes. The embryos, with the attachment of suspensors to their megagametophytes, were placed on the surface of induction medium. The culture was kept in darkness at 23° C. Embryogenic tissue was sub-cultured once every two weeks onto solid maintenance medium.
Embryogenic tissue of Douglas fir was collected from solid maintenance culture and one gram of tissue was transferred into a 200 ml flask containing 50 ml TX (see Table A) liquid maintenance medium. The liquid maintenance medium was supplied with different sugars (Table 8).
The tissue was drained, weighed and sub-cultured once per week. During a culture period of three weeks, the highest tissue growth was found in the culture with glucose as the major carbon source. The media containing sucrose, maltose and galactose also supported a fast tissue growth. With these latter sugars, tissue increased to 68 to 100 fold in three weeks. Tissue grew little in the media containing lactose or mannitol. […] Similar results were obtained within two cell lines, DF-7A and DF-2.

[2] = test system: loblolly pine lines LP1 and LP3; test: Effect of galactose and galactose-containing sugars during proliferation and prematuration on SE yield; format: cell-based, Pinus taeda (loblolly pine); set-up: Amount of tissue at the end of the preculture II stage: unit not given here; conditions: for # SE/g FW / Amount of tissue at the end of the preculture II stage: 1% sucrose, 1.5% maltose, 1.5% lactose or 0.75% galactose
Protocol: The finding that loblolly pine cultures were capable of utilising galactose is unique. In order to further investigate these phenomenon two lines, LP1 and LP3, were cultured on semi-solid TX medium containing 1.0% lactose and 0.5% sucrose. Cultures were maintained by subculturing the embryogenic tissue every 10 to 14 days to fresh media. All cultures were incubated at 23° C. in the dark. Suspension cultures were initiated as described in Example 3, however, TX medium was supplemented with either 1% sucrose, 1.5% maltose, 1.5% lactose, or 0.75% galactose. These cultures were maintained in liquid media for 4 weeks by weekly transfers to fresh maintenance or prematuration media. After the 4˜week period, 1 ml of the liquid medium containing 0.1 g of tissue consisting of early stage somatic embryos was plated on each […] plates containing ½ LV maturation medium. This medium contained 120 μM ABA and 6.0% sucrose and 1% Phytagel. Eight to ten weeks later, mature somatic embryos were counted and treatments were evaluated based on the number of somatic embryos per gram fresh weight (Table 5).

[3] = test system: radiata pine lines RP1, RP2, RP3, and RP4; test: Effect of carbon source on somatic embryo development of radiata pine in liquid cultures; format: cell-based, Pinus radiata (radiata pine); conditions: for # SE/g FW ± sd / Grams FW at the end of proliferation stage (from 1.5 g): 1.0% sucrose or 3.0% galactose in TXR prematuration media I and II; for tissue morphology: tissue induced and maintained on MSG sucrose or TXR galactose
Source text: Tissue induced on MSG containing sucrose was further maintained on MSG sucrose medium, and tissue induced on TXR galactose was maintained on TXR medium containing galactose as described in Example 6. The tissue morphology of the lines induced on galactose was different from that induced on sucrose. […] The lines used in this study were RP1, RP2, RP3, and RP4.
Suspension cultures were initiated as described in Example 6. These cultures were maintained in liquid media for 20-28 days by transfers to fresh maintenance medium every 10 to 14 days. Up to five fold increase of the tissue was estimated at the end of each 10 to 14 day transfer.
In order to study the effect of galactose on embryo development after the proliferation stage, 2 g tissue was further transferred to 250 ml flasks, containing 50 ml of TXR prematuration medium I supplemented with either 1.0% sucrose or 3.0% galactose. As with loblolly pine cultures, prematuration I requires reduction of hormones either by reducing the auxin and cytokinin concentrations to optimally about 1/20 of the concentration of proliferation step, or by adding charcoal at about 0.01 to 1%, or a combination of both.
After the 10-14 day period, 1.5 g tissue was transferred to 250 ml flasks containing 50 ml TXR prematuration medium II to which either 1.0% sucrose or 3.0% galactose and 90 μM ABA were added.
Early stage somatic embryos were collected after 10 to 14 days and matured on modified ½ LV maturation medium as described in Example 6.

[4] = test system: radiata pine megagametophytes containing immature zygotic embryos; test: Effect of carbon source on induction of radiata pine; format: cell-based, Pinus radiata (radiata pine)
Protocol: Female gametophytes containing immature zygotic embryos were used as explants. The cones were surface sterilised in 10% bleach solution for 15 min. They were rinsed 3 times with sterile water, air dried and stored in polyethylene bags at 4° C. until used. Seeds were sterilised in 3% hydrogen peroxide containing 0.1% Tween 20 and rinsed in sterile deionized water. Megagametophytes containing the immature embryos were plated on MSG (standard radiata pine medium containing sucrose, Table B) and on TX medium (Table A) supplemented with 2.2 mg/l 2,4-D, 1 mg/l BA and 0.3% Phytagel and containing 1.5% galactose and 0.5% sucrose. Casein hydrolysate was reduced to 1000 mg/l (TXR medium).
Cultures were maintained on the two media by subculturing the embryogenic tissue every 10 to 14 days to fresh media. All cultures were incubated at 23° C. in the dark. Suspension cultures were initiated as 2 g of tissue were introduced to 50 ml of TXR liquid medium containing 1.0% sucrose. […]
One ml of TXR medium containing 0.1 g tissue consisting of early stage somatic embryos was plated on modified ½ LV maturation medium (Table C) in which glutamine was reduced to 500 mg/l and casein hydrolysate to 1000 mg/l. […] Twelve to fourteen weeks later, mature somatic embryos were counted and treatments were evaluated based on the number of somatic embryos per gram fresh weight.

[5] = test system: Douglas fir embryogenic tissue; test: Medium osmolarity before and after one-week tissue inoculation; format: cell-based, Pseudotsuga menziesii (Douglas fir); conditions: medium with 0.5% galactose, 1% lactose, 0.5% mannitol or 0.5% glucose
Source text: More change of medium osmolarity occurred during week 2 than week 1. The medium osmolarity changed little when lactose or mannitol was used in the media.

[6] = test system: Suspension cultures of loblolly lines LP1, LP2, LP3, LP4 and LP5; test: Effect of carbon source on liquid maintenance: growth rate and yield of somatic embryos; format: cell-based, Pinus taeda (loblolly pine); conditions: 1% sucrose; for # SE/g FW ± sd: 1.5% maltose or 1.5% lactose for 4 weeks in liquid, then 8-10 weeks on 1/2 LV maturation medium; for Average amount of tissue produced after 4 weeks in liquid (FW g): 1.5% maltose or 1.5% lactose in maintenance and prematuration I and II, started with 2 g
Protocol: Suspension cultures of loblolly lines LP1, LP2, LP3, LP4 and LP5 were started with 2 g of tissue introduced to 50 ml of TX liquid medium containing different sugars—1% sucrose, 1.5% maltose, or 1.5% lactose. These cultures were maintained in the same liquid media for 2 weeks by weekly transfers to fresh maintenance medium containing the above sugars. Then, 2 g of tissue produced in each maintenance medium was transferred to prematuration media I, containing the same carbon source as the maintenance media. After one week, 1.5 g of tissue from each prematuration medium I was transferred to prematuration media II containing the same sugars. After the 4 week period in liquid media, early stage somatic embryos were collected and plated on ½ LV maturation medium containing 120 μM ABA and 6.0% sucrose and 1% Phytagel. Eight to ten weeks later, mature somatic embryos were counted and treatments were evaluated based on the number of somatic embryos per gram fresh weight (SE/g FW). Table 2 summarises the tissue yield at the end of the 4-week period and the number of mature somatic embryos produced for each line.

[7] = test system: loblolly pine embryogenic tissue; test: Effect of carbon source on solid maintenance of loblolly pine; format: cell-based, Pinus taeda (loblolly pine); conditions: semi-solid TX medium; 1% sucrose, or 1.5% lactose and 0.025% glucose
Protocol: Tissue induced on sucrose from Example 1 was further maintained on the semi-solid TX medium containing 1% sucrose, and tissue induced on lactose was maintained on semi-solid TX medium containing 1.5% lactose and 0.025% glucose. The tissue morphology of the lines induced on lactose was different from the ones induced on sucrose. […] In order to further increase the proliferation rate, 0.5% sucrose was added to the TX 1.5% lactose-containing medium in place of 0.025% glucose. This medium provided a reasonable bulk-up rate, and growth of embryos was more synchronized than in the 1% sucrose medium.

[8] = additional glucose 0%, 0.5% glucose, 1% sucrose, 1% maltose

| SMILES | Tissue growth (fold, mean ± SD) [1, 8] [fold] | Tissue growth (fold, mean ± SD) ([1]; additional glucose 0.025%) [fold] | # SE/g FW ([2]; line LP1) [SE/g FW] | Amount of tissue at the end of the preculture II stage ([2]; line LP1) | # SE/g FW ([2]; line LP3) [SE/g FW] | Amount of tissue at the end of the preculture II stage ([2]; line LP3) | # SE/g FW ± sd [3] [SE/g FW] | Grams FW at the end of proliferation stage (from 1.5 g) [3] [g] | Tissue growth increase ([3]; galactose as carbon source) | number of mature somatic embryos at the end of maturation ([3]; galactose as carbon source) | tissue morphology [3] | Induction success, galactose compared with sucrose medium ([4]; galactose as carbon source) | subsequent yields of mature embryos, galactose compared with sucrose medium ([4]; tissues induced on galactose) | Osmolarity before inoculation (mmol/kg, mean ± SD) [5] [mmol/kg] | # SE/g FW ± sd [6] [SE/g FW] | Average amount of tissue produced after 4 weeks in liquid (FW g) [6] [g] | tissue morphology [7] | embryos produced ([2]; line LP1, as stated in the text) [embryos] | amount of tissue at the end of the 4 week-liquid period ([2]; line LP3, sucrose as sole carbon source) [g] |
| --- | --- | --- | --- | --- | --- | --- | --- | --- | --- | --- | --- | --- | --- | --- | --- | --- | --- | --- | --- |
| O=C[C@H](O)[C@@H](O)[C@@H](O)[C@H](O)CO [Galactose] | 68.64 ± 4.58 | 97.02 ± 2.67 | 216 ± 8 | 59.45 | 172 ± 5 | 8.65 | 405.3 ± 10 | 9.5 ± 2 | more than 5 times | doubled | more early stage immature embryos and a limited amount of suspensor type of surrounding tissue | greater than three times higher | almost double | 71.67 ± 1.15 | – | – | – | – | – |
| OC[C@H]1O[C@H](O[C@H]2[C@H](O)[C@@H](O)[C@H](O)O[C@@H]2CO)[C@H](O)[C@@H](O)[C@@H]1O [Maltose, maltose] | 85.01 ± 1.71 | – | 106 ± 4 | 232.18 | 160 ± 5 | 118.22 | – | – | – | – | – | – | – | – | 209 ± 28 | 204.45 | – | – | – |
| OC[C@H]1O[C@@](CO)(O[C@H]2O[C@H](CO)[C@@H](O)[C@H](O)[C@H]2O)[C@@H](O)[C@@H]1O [Sucrose, sucrose] | 100.94 ± 12.0 | – | 11 ± 3 | 121.22 | 100 ± 6 | 1278.18 | 213.3 ± 6 | 11.05 ± 2 | – | – | predominantly suspensor type tissue and very few embryos | – | – | – | 126 ± 20 | 592.06 | Predominantly suspensor type tissue and very few embryos | 11 | 1278.18 |
| OC[C@@H](O)[C@@H](O)[C@H](O)[C@H](O)CO [mannitol, reference compound] | 1.60 ± 0.13 | 3.34 ± 0.22 | – | – | – | – | – | – | – | – | – | – | – | 76 ± 1 | – | – | – | – | – |
